ChEMBL document CHEMBL1201862, “PubChem BioAssay data set” (2004)
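48-hour exposure; five concentrations; linearly interpolated endpoints. GI50 is the concentration that inhibits growth by half.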 Calls of active or inactive are those of the source. Cut-off read from the data, not from the text of the source: active = GI50 up to about 1.1 µM and inactive = higher.

Key:
Assay in all cases: NCI tumour cell line growth inhibition, 48 h
SNB-75 = test system: SNB-75
RPMI-8226 = test system: RPMI-8226
M14 = test system: M14
A549 = test system: A549
U-251 = test system: U-251
SW-620 = test system: SW-620
HL-60 = test system: HL-60
CCRF-CEM = test system: CCRF-CEM
LOX IMVI = test system: LOX IMVI
SF-295 = test system: SF-295
M19-MEL = test system: M19-MEL
LXFL 529 = test system: LXFL 529
HOP-62 = test system: HOP-62
DMS-273 = test system: DMS-273
ACHN = test system: ACHN
HT-29 = test system: HT-29
SN12C = test system: SN12C
KM12 = test system: KM12
MOLT-4 = test system: MOLT-4
SNB-19 = test system: SNB-19
SF-539 = test system: SF-539
A498 = test system: A498
HOP-92 = test system: HOP-92
COLO 205 = test system: COLO 205
UACC-257 = test system: UACC-257
OVCAR-3 = test system: OVCAR-3
SNB-78 = test system: SNB-78
SF-268 = test system: SF-268
HOP-18 = test system: HOP-18
RXF 393 = test system: RXF 393
SK-MEL-5 = test system: SK-MEL-5
IGROV-1 = test system: IGROV-1
DLD-1 = test system: DLD-1
SR = test system: SR
UO-31 = test system: UO-31
NCI-H522 = test system: NCI-H522
NCI-H460 = test system: NCI-H460
Malme-3M = test system: Malme-3M
OVCAR-4 = test system: OVCAR-4
EKVX = test system: EKVX
TK-10 = test system: TK-10
KM-20L2 = test system: KM-20L2
OVCAR-5 = test system: OVCAR-5
UACC-62 = test system: UACC-62
SK-OV-3 = test system: SK-OV-3
HCT-116 = test system: HCT-116
HCT-15 = test system: HCT-15
SK-MEL-28 = test system: SK-MEL-28
HCC 2998 = test system: HCC 2998
CAKI-1 = test system: CAKI-1
786-0 = test system: 786-0
OVCAR-8 = test system: OVCAR-8
K562 = test system: K562
DMS-114 = test system: DMS-114
NCI-H226 = test system: NCI-H226
NCI-H23 = test system: NCI-H23
SK-MEL-2 = test system: SK-MEL-2

O=C1/C(=C/c2ccc3c(c2)OCCO3)CCC/C1=C\c1ccc2c(c1)OCCO2
GI50 (SNB-75): 24.9 µM (inactive) | GI50 (RPMI-8226): 16.1 µM (inactive) | GI50 (M14): 19 µM (inactive) | GI50 (A549): 23.8 µM (inactive) | GI50 (U-251): 14.2 µM (inactive) | GI50 (SW-620): 18.2 µM (inactive) | GI50 (HL-60): 12.3 µM (inactive) | GI50 (CCRF-CEM): 29.9 µM (inactive) | GI50 (LOX IMVI): 8.41 µM (inactive) | GI50 (SF-295): 17 µM (inactive) | GI50 (M19-MEL): 18.2 µM (inactive) | GI50 (LXFL 529): 37.5 µM (inactive) | GI50 (HOP-62): 33.3 µM (inactive) | GI50 (DMS-273): 8.99 µM (inactive) | GI50 (ACHN): 39.9 µM (inactive) | GI50 (HT-29): 6.9 µM (inactive) | GI50 (SN12C): 25.7 µM (inactive) | GI50 (KM12): 6.21 µM (inactive) | GI50 (MOLT-4): 20.5 µM (inactive) | GI50 (SNB-19): 34.8 µM (inactive) | GI50 (SF-539): 19.2 µM (inactive) | GI50 (A498): 27.7 µM (inactive) | GI50 (HOP-92): 32.1 µM (inactive) | GI50 (COLO 205): 15.6 µM (inactive) | GI50 (UACC-257): 20.1 µM (inactive) | GI50 (OVCAR-3): 20.3 µM (inactive) | GI50 (SNB-78): 26.8 µM (inactive) | GI50 (SF-268): 26.2 µM (inactive) | GI50 (HOP-18): 23.9 µM (inactive) | GI50 (RXF 393): 20 µM (inactive) | GI50 (SK-MEL-5): 25.6 µM (inactive) | GI50 (IGROV-1): 32.8 µM (inactive) | GI50 (DLD-1): 15.8 µM (inactive) | GI50 (SR): 23.8 µM (inactive) | GI50 (UO-31): 82.4 µM (inactive) | GI50 (NCI-H522): 35.4 µM (inactive) | GI50 (NCI-H460): 22.8 µM (inactive) | GI50 (Malme-3M): 29 µM (inactive) | GI50 (OVCAR-4): 21.1 µM (inactive) | GI50 (EKVX): 51.3 µM (inactive) | GI50 (TK-10): 36.9 µM (inactive) | GI50 (KM-20L2): 10.8 µM (inactive) | GI50 (OVCAR-5): 32.9 µM (inactive) | GI50 (UACC-62): 23 µM (inactive) | GI50 (SK-OV-3): 83.8 µM (inactive) | GI50 (HCT-116): 2.53 µM (inactive) | GI50 (HCT-15): 24.5 µM | GI50 (SK-MEL-28): 24.3 µM (inactive) | GI50 (HCC 2998): 18.1 µM (inactive) | GI50 (CAKI-1): 39.3 µM (inactive) | GI50 (786-0): 22.9 µM (inactive) | GI50 (OVCAR-8): 15.9 µM (inactive)

CC1(C)OC(COP2OCCO2)[C@H](COP2OCCO2)O1 (some centres not stated)
GI50 (SNB-75): > 100 µM (inactive) | GI50 (M14): > 100 µM (inactive) | GI50 (A549): > 100 µM (inactive) | GI50 (SW-620): > 100 µM (inactive) | GI50 (HL-60): > 100 µM (inactive) | GI50 (K562): > 100 µM (inactive) | GI50 (CCRF-CEM): > 100 µM (inactive) | GI50 (LOX IMVI): > 100 µM (inactive) | GI50 (SF-295): > 100 µM (inactive) | GI50 (M19-MEL): > 100 µM (inactive) | GI50 (LXFL 529): > 100 µM (inactive) | GI50 (DMS-273): > 100 µM (inactive) | GI50 (ACHN): > 100 µM (inactive) | GI50 (HT-29): > 100 µM (inactive) | GI50 (SN12C): > 100 µM (inactive) | GI50 (KM12): > 100 µM (inactive) | GI50 (MOLT-4): > 100 µM (inactive) | GI50 (SF-539): > 100 µM (inactive) | GI50 (A498): > 100 µM (inactive) | GI50 (UACC-257): > 100 µM (inactive) | GI50 (DMS-114): > 100 µM (inactive) | GI50 (OVCAR-3): > 100 µM (inactive) | GI50 (SNB-78): > 100 µM (inactive) | GI50 (SF-268): > 100 µM (inactive) | GI50 (HOP-18): > 100 µM (inactive) | GI50 (RXF 393): > 100 µM (inactive) | GI50 (SK-MEL-5): > 100 µM (inactive) | GI50 (NCI-H226): > 100 µM (inactive) | GI50 (IGROV-1): 31 µM (inactive) | GI50 (NCI-H460): > 100 µM (inactive) | GI50 (Malme-3M): > 100 µM (inactive) | GI50 (OVCAR-4): > 100 µM (inactive) | GI50 (NCI-H23): > 100 µM (inactive) | GI50 (TK-10): > 100 µM (inactive) | GI50 (UACC-62): > 100 µM (inactive) | GI50 (HCT-116): > 100 µM (inactive) | GI50 (HCT-15): > 100 µM | GI50 (SK-MEL-2): > 100 µM (inactive) | GI50 (SK-MEL-28): > 100 µM (inactive) | GI50 (OVCAR-8): > 100 µM (inactive)
